Source: patent US6573258B2, “Photodynamic porphyrin antimicrobial agents” (Frontier Scientific, Inc., priority 2000, dated 2003)

Columns and labels:
[1] = Fluorescence quantum yields; format: physicochemical; details: for ΦF (PBS), fluorescence quantum yield: in PBS; for ΦF (SDS), fluorescence quantum yield: in aqueous 2% SDS
Protocol: Ground-state absorption spectra of the porphyrins (ca. 5 μM in phosphate buffered saline (PBS, pH=7.4) were recorded with a Lambda 5 Perkin-Elmer spectrophotometer. Fluorescence spectra, corrected for the instrumental response, were recorded with a Perkin-Elmer (model LS) or a Spex (Fluorolog F112) spectrofluorimeter. Fluorescence quantum yields ((IF) of the porphyrin derivatives in PBS and in water containing 2% sodium dodecylsulfate (a detergent, hereinafter “SDS”) were determined by measuring the area of the emission spectrum (600-800 nm range, excitation at 560 nm) and using tetra-n-propylporphycene in toluene as a reference (ΦF=0.38). Braslavsky et al, J. Photochem. Photobiol. B: Biol., 40:191-198 (1997). In all cases, the absorbance of the sample and the reference solution were kept below 0.1 at the excitation wavelength to minimize inner filter effects.

[2] = Fluorescence decay times (phase-shift method); format: physicochemical; details: ca. 5 μM, air-equilibrated buffer pH 7.4, λexc = 420 nm, λem > 600 nm; for A1, relative weight of fast component: dihydrochloride salt
Protocol: Fluorescence decay times of the porphyrin samples were measured by means of a Spex Fluorolog-τ2 spectrofluorimeter based on the phase-shift method. The frequency response curves (phase-shift and demodulation ratio vs. frequency) were globally analyzed.

[3] = Triplet state properties by laser flash photolysis; format: physicochemical; details: phosphate-buffered solution; for φT, triplet quantum yield: ε920 estimated by total depletion method
Protocol: Laser flash photolysis experiments were carried out by use of the setup previously described in Gomer, et al., with excitation wavelengths of 355 and 420 nm. Gorner, et al., Photoinduced electron transfer between styrylanthracenes and electron donors and acceptors in acetonitrile, J. Chem. Soc. Faraday Trans., vol. 88, pp. 29-34 (1992).
The transient spectra of the porphyrins in buffer solutions were recorded upon laser flash photolysis excitation at 355 and 420 nm. […] The decay (growth) of the signal (bleaching) occurred according to first-order kinetics and led to a complete recovery of the ground state with a lifetime of 91 μs. […] This also allowed the triplet quantum yield (φT) to be determined (see Table 3), after calibration of the experimental setup by use of an optically-matched solution of benzophenone in acetonitrile.

E. coli cells [4] = assay: Decrease of cell survival (colony counting) after white-light irradiation; format: cell-based, Escherichia coli; details: 1 μM porphyrin; for DECREASE OF SURVIVAL (log): 5 min dark incubation, 15 min white light (150 mW/cm^2)
Protocol: (§1) Escherichia coli strain O4 (wild type), and methycillin-resistant Staphylococcus aureus, strain MRSA 110, were grown aerobically at 37° C. in brain heart infusion broth (BHI, Difco, Detroit, Mich.). The cells in the stationary phase of growth were harvested by centrifugation (2,000 g for 15 min) of the broth cultures, washed twice with 10 mM PBS at pH=7.4, containing 2.7 mM KCl and 0.14 M NaCl, and suspended in PBS at a density of 10^8-10^9 cells/ml (absorbance of about 0.7 at 650 nm). Aliquots of 5 ml of the cell suspension were incubated with 1 μM porphyrins for 5 min in the dark at room temperature. After incubation the suspensions were centrifuged and the cell pellets were collected immediately or washed with PBS and centrifuged again for one or three times.
(§2) The toxic effects of T4MPyP and its analogues on E. coli and S. aureus cells were evaluated by measuring the extent of growth inhibition (bacteriostatic effect) and reduction of survival (cytocidal/bacteriocidal effect) following treatment with porphyrin in the dark or upon light exposure.
(§3) In all cases, 5 ml of the cell suspension (10^8-10^9 cells/ml) were incubated for 5 min in the dark at room temperature with the selected photosensitizer at concentrations ranging between 0.5 and 10 μM. After dark-incubation, some of the cell samples were irradiated with white light (150 mW/cm^2). During irradiation, (up to 30 min) the cells were kept at 37° C. and magnetically stirred. The treated and untreated control cells were diluted with BHI and maintained at 37° C. while the absorbance of the suspension at 650 nm was monitored at predetermined time periods for determining growth curves. The percent of growth inhibition in the treated cells was calculated by the following equation: […]
(§4) where AX, and AC are the absorbances measured after 3 h incubation, respectively, for the treated and control cell suspensions, respectively, while A0 represents the initial absorbance and the AC is that of the control cell suspension after 5 hours incubation. Cell survival was determined by plating serially diluted aliquots of treated and untreated cells on brain heart agar and counting the number of colonies after 18-24 h incubation at 37° C.

[5] = Photosensitized photooxidation of NATA; details: 10 μM NATA; for ΦSDS × 10^3, quantum yield for photo-oxidation of NATA: aqueous 2% SDS; for ΦPBS × 10^3, quantum yield for photo-oxidation of NATA: phosphate buffered solution
Protocol: The photosensitizing activity of the various porphyrins was tested by measuring their efficiency in promoting the photooxidation of N-acetyl-L-tryptophanamide (NATA, Aldrich Chem. Co.) as a model biological substrate. Toward this aim, 10 μM NATA in PBS or in water containing 2% SDS was irradiated in the presence of 5 μM porphyrin. The irradiations were performed with 515±10 nm-light isolated by means of an interference filter (Balzers, Liechtenstein), while the solution (2 ml) was magnetically stirred in a quartz cuvette of 1-cm optical path and kept at 25° C. The photosensitized modification of NATA was followed by measuring the decrease in the intensity of its fluorescence emission spectrum (300-450 nm) upon excitation with 290 nm-light at various irradiation times. Plots of in F°/F (where F° and F represent the fluorescence intensity at time 0 and t, respectively) vs. the irradiation time allowed the first-order rate constants of the photo-process to be derived.
The intensity of the incident light was measured by using Aberchrome 999P in toluene as an actinometer. Heller, EPA Newslett., 29:49-60 (1987). This parameter was used to calculate the quantum yields of NATA photooxidation sensitized by the different porphyrins.

S. aureus cells [6] = assay: Dark toxicity of porphyrins on bacteria cells; format: cell-based, Staphylococcus aureus; details: 10 μM, 5 min incubation in the dark
Protocol: as §2, §3, §4

S. aureus cells [7] = assay: Growth inhibition after 5 min incubation with porphyrin and white-light irradiation; format: cell-based, Staphylococcus aureus
Protocol: (§5) The abilities of various examples of the porphyrins of the instant invention to kill Gram-negative and Gram-positive bacteria were tested against that of T4MPyP. Each of the compounds was incubated with E. coli and S. aureus cells for 5 minutes, following which the samples were irradiated with white light for varying lengths of time.
as §1, §2
[…] After dark-incubation, some of the cell samples were irradiated with white light (150 mW/cm^2). During irradiation, (up to 30 min) the cells were kept at 37° C. and magnetically stirred. The treated and untreated control cells were diluted with BHI and maintained at 37° C. while the absorbance of the suspension at 650 nm was monitored at predetermined time periods for determining growth curves. The percent of growth inhibition in the treated cells was calculated by the following equation:
as §4

E. coli cells [8] = assay: Dark toxicity of porphyrins on bacteria cells; format: cell-based, Escherichia coli; details: 10 μM, 5 min incubation in the dark
Protocol: as §2, §3, §4

E. coli cells [9] = assay: Growth inhibition after 5 min incubation with porphyrin and white-light irradiation; format: cell-based, Escherichia coli; details: for concentration photoinducing significant bacteriostatic and bactericidal action: both cell strains (S. aureus and E. coli)
Protocol: as §5, §1, §2, §3, §4

[10] = 0.5 μM, incubated 5 min, white light 5 min
[11] = 0.5 μM, incubated 5 min, white light 10 min
[12] = Table 5: 0.5 μM, 5 min incubation, 5 min white light (150 mW/cm^2)
[13] = Table 5: 1 μM, 5 min incubation, 5 min white light (150 mW/cm^2)

| Structure (SMILES) | ΦF (PBS), fluorescence quantum yield [1] | ΦF (SDS), fluorescence quantum yield [1] | A2, relative weight of slow component [2] [%] | τ1, fluorescence decay time of fast component [2] [ns] | τ2, fluorescence decay time of slow component [2] [ns] | A1, relative weight of fast component [2] [%] | λmax of transient spectrum [3] [nm] | λmin of transient spectrum [3] [nm] | φ×ε920 [3] [M⁻¹ cm⁻¹] | τ^N2, triplet lifetime [3] [μs] | τ^air, triplet lifetime [3] [μs] | φT, triplet quantum yield [3] | DECREASE OF SURVIVAL (log) (E. coli cells [4]) | ΦSDS × 10^3, quantum yield for photo-oxidation of NATA [5] | ΦPBS × 10^3, quantum yield for photo-oxidation of NATA [5] | inhibition of bacterial cell growth in the dark (S. aureus cells [6]) | Growth inhibition (%) S. aureus (S. aureus cells [7]; [10]) [%] | Growth inhibition (%) S. aureus (S. aureus cells [7]; [11]) [%] | Growth inhibition (%) S. aureus (S. aureus cells [7]; [12]) [%] | inhibition of bacterial cell growth in the dark (E. coli cells [8]) | other results |
| --- | --- | --- | --- | --- | --- | --- | --- | --- | --- | --- | --- | --- | --- | --- | --- | --- | --- | --- | --- | --- | --- |
| CCCCCCCCCCCCCC[n+]1ccc(-c2c3nc(c(-c4cc[n+](C)cc4)c4ccc([nH]4)c(-c4cc[n+](C)cc4)c4nc(c(-c5cc[n+](C)cc5)c5ccc2[nH]5)C=C4)C=C3)cc1.Cl.Cl.[Cl-].[Cl-].[Cl-].[Cl-] [Porphyrin C14, 5-(4-N-tetradecylpyridyl)-10,15,20-tris(4-N-methylpyridyl)-21H,23H-porphine tetrachloride dihydrochloride salt] | 0.019 | 0.022 | 98 | 1.0 | 6.5 | 2 | 480 | 425 | 9762 | 70 | 20 | 0.48 | −4.35 ± 0.45 | 0.71 ± 0.03 | 0.66 ± 0.10 | complete inhibition | 72.7 | 88.9 | 73 | complete inhibition | drop in survival of E. coli cells (E. coli cells [4]; 15 min irradiation): 4 log; Growth inhibition (%) E. coli (E. coli cells [9]; [10]): 81.8%; Growth inhibition (%) E. coli (E. coli cells [9]; [11]): 100%; Growth inhibition (%) E. coli (E. coli cells [9]; [12]): 82%; concentration photoinducing significant bacteriostatic and bactericidal action (E. coli cells [9]): ten-fold lower concentration |
| CCCCCCCCCCCCCCCCCC[n+]1ccc(-c2c3nc(c(-c4cc[n+](C)cc4)c4ccc([nH]4)c(-c4cc[n+](C)cc4)c4nc(c(-c5cc[n+](C)cc5)c5ccc2[nH]5)C=C4)C=C3)cc1.Cl.Cl.[Cl-].[Cl-].[Cl-].[Cl-] [Porphyrin C18, 5-(4-N-octadecylpyridyl)-10,15,20-tris(4-N-methylpyridyl)-21H,23H-porphine tetrachloride dihydrochloride salt] | 0.022 | 0.024 | 97 | 1.4 | 9.0 | 3 | 470 | 420 | 2700 | 74 | 21 | 0.17 | −2.78 ± 0.62 | 0.80 ± 0.04 | 0.14 ± 0.01 | complete inhibition | 41.4 | 58.1 | 42 | complete inhibition | Growth inhibition (%) S. aureus (S. aureus cells [7]; 0.1 μM, incubated 5 min, white light 5 min): 12.7%; Growth inhibition (%) S. aureus (S. aureus cells [7]; 0.1 μM, incubated 5 min, white light 10 min): 20.2%; Growth inhibition (%) S. aureus (S. aureus cells [7]; [13]): 59%; Growth inhibition (%) E. coli (E. coli cells [9]; [10]): 26%; Growth inhibition (%) E. coli (E. coli cells [9]; [11]): 56.6%; Growth inhibition (%) E. coli (E. coli cells [9]; 1 μM, incubated 5 min, white light 5 min): 57.9%; Growth inhibition (%) E. coli (E. coli cells [9]; 1 μM, incubated 5 min, white light 10 min): 95.7%; Growth inhibition (%) E. coli (E. coli cells [9]; [12]): 26%; Growth inhibition (%) E. coli (E. coli cells [9]; [13]): 58%; concentration photoinducing significant bacteriostatic and bactericidal action (E. coli cells [9]): ten-fold lower concentration |
| C[n+]1ccc(-c2c3nc(c(-c4cc[n+](C)cc4)c4ccc([nH]4)c(-c4cc[n+](Cc5ccccc5)cc4)c4nc(c(-c5cc[n+](C)cc5)c5ccc2[nH]5)C=C4)C=C3)cc1.Cl.Cl.[Cl-].[Cl-].[Cl-].[Cl-] [mono-benzyl, 5-(4-N-benzylpyridyl)-10,15,20-tris(4-N-methylpyridyl)-21H,23H-porphine tetrachloride dihydrochloride salt] | – | – | – | – | – | – | – | – | – | – | – | – | – | – | – | – | – | – | – | – | Growth inhibition (%) E. coli (E. coli cells [9]; 10 μM, incubated 5 min, white light 5 min): 54.1%; Growth inhibition (%) E. coli (E. coli cells [9]; 10 μM, incubated 5 min, white light 10 min): 100%; photodynamic effectiveness relative to base porphyrin (E. coli cells [9]; same conditions as base porphyrin): about twice as effective as the base porphyrin |
